Assay results published in ChEMBL document CHEMBL4507268 (2021).

How the values were obtained:
[1] = biological target: Tyrosine-protein kinase Fer (Homo sapiens) (UniProt P16591); conditions: Compound concentration 1000.0 nM
[2] = biological target: Serine/threonine-protein kinase pim-1 (Homo sapiens) (UniProt P11309); conditions: Compound concentration 1000.0 nM
[3] = biological target: T1, Rhodopsin kinase GRK7 (Homo sapiens) (UniProt Q8WTQ7); conditions: Compound concentration 1000.0 nM
T1 sequence (whole entry): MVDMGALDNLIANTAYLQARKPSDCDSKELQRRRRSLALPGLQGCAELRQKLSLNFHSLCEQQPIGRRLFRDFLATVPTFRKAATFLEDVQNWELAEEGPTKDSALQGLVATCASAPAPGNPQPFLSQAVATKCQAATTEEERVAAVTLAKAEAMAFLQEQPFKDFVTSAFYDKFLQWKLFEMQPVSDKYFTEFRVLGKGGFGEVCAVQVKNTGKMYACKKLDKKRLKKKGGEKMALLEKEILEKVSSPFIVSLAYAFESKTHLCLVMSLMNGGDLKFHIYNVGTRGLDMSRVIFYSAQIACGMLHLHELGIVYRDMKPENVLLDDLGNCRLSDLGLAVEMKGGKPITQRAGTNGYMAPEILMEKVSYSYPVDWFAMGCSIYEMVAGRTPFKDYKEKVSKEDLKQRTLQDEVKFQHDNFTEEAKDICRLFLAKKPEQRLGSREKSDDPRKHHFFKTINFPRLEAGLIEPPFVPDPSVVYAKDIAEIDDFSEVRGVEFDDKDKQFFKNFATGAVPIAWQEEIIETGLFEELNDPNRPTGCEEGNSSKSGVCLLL

[4] = test system: Fibroblast growth factor receptor 3 (Homo sapiens), P22607 [G697C]; conditions: Compound concentration 1000.0 nM
[5] = biological target: 5'-AMP-activated protein kinase catalytic subunit alpha-2 (Homo sapiens) (UniProt P54646); conditions: Compound concentration 1000.0 nM
[6] = biological target: D(1B) dopamine receptor (Homo sapiens) (UniProt P21918); conditions: Compound concentration 10.0 uM
D(1B) dopamine receptor (Homo sapiens), sequence (P21918 whole entry): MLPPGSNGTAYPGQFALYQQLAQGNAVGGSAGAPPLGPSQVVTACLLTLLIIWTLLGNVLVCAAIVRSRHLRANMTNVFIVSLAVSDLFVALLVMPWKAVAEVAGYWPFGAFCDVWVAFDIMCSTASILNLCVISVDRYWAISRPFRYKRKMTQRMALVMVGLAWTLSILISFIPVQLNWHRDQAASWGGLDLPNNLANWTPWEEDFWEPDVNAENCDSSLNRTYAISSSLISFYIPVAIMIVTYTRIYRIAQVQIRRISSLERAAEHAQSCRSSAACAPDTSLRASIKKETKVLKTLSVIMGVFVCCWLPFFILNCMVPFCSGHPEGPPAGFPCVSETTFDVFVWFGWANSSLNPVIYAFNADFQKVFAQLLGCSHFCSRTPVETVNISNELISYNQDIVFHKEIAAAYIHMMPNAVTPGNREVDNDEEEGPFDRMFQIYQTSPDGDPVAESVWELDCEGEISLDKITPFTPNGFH

[7] = biological target: Phosphatidylinositol 4-phosphate 5-kinase type-1 alpha (Homo sapiens) (UniProt Q99755); conditions: Compound concentration 1000.0 nM
SN12C = test: Proliferation assay: SN12C (renal cell carcinoma); type: functional, cell-based; conditions: Homo sapiens
[8] = biological target: T2, Dual specificity mitogen-activated protein kinase kinase 3 (Homo sapiens) (UniProt P46734); conditions: Compound concentration 1000.0 nM
T2 sequence (whole entry): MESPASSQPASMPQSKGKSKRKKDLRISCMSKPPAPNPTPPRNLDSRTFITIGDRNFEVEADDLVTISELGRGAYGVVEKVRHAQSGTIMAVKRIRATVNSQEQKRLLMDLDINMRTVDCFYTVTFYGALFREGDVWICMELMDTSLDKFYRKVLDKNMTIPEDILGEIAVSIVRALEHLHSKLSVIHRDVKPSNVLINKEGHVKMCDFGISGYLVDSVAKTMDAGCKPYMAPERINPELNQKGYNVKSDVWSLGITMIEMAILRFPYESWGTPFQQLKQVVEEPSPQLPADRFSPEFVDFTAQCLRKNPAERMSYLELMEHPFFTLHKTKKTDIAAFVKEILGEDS

[9] = biological target: Rho-associated protein kinase 2 (Homo sapiens) (UniProt O75116); conditions: Compound concentration 1000.0 nM
Rho-associated protein kinase 2 (Homo sapiens), sequence (O75116 whole entry, looked up): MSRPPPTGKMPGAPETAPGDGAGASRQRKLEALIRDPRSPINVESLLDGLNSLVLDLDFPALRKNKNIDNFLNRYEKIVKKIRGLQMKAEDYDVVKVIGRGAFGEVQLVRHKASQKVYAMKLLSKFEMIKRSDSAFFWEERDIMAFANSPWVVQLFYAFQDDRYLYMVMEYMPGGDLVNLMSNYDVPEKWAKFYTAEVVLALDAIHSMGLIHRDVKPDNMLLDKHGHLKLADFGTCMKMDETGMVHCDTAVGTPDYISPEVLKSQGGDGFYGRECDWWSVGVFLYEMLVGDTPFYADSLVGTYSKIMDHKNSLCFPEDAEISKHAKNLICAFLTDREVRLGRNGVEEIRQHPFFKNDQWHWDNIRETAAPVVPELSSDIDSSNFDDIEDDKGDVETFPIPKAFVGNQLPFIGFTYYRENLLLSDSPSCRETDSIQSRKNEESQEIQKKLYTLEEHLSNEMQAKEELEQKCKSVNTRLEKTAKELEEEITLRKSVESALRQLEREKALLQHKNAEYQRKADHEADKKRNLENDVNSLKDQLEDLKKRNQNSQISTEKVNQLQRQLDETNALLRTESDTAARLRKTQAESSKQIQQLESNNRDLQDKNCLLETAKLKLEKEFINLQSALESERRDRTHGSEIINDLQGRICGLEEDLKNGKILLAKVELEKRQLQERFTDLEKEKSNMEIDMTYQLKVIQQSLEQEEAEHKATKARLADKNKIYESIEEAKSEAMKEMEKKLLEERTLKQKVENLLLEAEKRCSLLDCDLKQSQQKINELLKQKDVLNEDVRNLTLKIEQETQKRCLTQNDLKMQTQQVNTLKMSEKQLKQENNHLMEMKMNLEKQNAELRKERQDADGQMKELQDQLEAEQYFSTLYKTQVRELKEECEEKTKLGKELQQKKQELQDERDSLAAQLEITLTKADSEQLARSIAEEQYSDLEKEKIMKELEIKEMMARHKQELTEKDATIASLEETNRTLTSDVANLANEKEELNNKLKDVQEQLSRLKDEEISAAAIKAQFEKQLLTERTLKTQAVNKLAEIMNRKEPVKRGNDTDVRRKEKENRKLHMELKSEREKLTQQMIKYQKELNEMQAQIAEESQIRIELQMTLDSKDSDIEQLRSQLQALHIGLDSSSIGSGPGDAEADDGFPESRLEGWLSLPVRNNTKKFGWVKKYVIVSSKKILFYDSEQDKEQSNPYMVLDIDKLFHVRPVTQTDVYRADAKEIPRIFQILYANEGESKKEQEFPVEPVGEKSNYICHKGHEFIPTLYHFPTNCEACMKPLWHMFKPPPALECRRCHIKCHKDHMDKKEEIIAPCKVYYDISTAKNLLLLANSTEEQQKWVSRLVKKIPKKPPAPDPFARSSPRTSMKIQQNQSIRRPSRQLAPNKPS

[10] = biological target: Dual specificity protein kinase CLK4 (Homo sapiens) (UniProt Q9HAZ1); conditions: Compound concentration 1000.0 nM
[11] = biological target: Cyclin-G-associated kinase (Homo sapiens) (UniProt O14976); conditions: Compound concentration 1000.0 nM
[12] = biological target: Vascular endothelial growth factor receptor 3 (Homo sapiens) (UniProt P35916); conditions: Compound concentration 1000.0 nM
[13] = biological target: Fibroblast growth factor receptor 4 (Homo sapiens) (UniProt P22455); conditions: Compound concentration 1000.0 nM
Fibroblast growth factor receptor 4 (Homo sapiens), sequence (P22455 22-802 limits assumed): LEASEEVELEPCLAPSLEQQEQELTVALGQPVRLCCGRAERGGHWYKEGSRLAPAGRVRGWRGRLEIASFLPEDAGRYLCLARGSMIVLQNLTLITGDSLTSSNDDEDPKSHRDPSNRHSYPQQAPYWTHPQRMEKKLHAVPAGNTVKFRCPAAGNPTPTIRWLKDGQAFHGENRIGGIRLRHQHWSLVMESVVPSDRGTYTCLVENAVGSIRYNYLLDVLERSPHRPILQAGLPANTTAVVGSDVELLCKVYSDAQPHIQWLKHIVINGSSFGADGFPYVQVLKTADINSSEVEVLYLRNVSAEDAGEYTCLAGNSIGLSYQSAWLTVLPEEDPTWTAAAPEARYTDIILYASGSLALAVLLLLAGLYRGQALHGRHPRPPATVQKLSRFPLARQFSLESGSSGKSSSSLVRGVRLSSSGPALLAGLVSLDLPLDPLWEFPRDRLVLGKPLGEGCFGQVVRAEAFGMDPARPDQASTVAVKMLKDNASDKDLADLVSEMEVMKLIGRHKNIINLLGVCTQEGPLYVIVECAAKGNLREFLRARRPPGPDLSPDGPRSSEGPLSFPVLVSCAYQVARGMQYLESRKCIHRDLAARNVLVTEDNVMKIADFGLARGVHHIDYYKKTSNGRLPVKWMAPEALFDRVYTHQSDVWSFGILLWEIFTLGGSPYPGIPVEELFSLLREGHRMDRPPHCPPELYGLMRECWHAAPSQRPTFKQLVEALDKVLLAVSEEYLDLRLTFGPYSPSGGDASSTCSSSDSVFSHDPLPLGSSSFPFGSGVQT

[14] = biological target: 5-hydroxytryptamine receptor 5A (Homo sapiens) (UniProt P47898); conditions: Compound concentration 10.0 uM
5-hydroxytryptamine receptor 5A (Homo sapiens), sequence (P47898 whole entry): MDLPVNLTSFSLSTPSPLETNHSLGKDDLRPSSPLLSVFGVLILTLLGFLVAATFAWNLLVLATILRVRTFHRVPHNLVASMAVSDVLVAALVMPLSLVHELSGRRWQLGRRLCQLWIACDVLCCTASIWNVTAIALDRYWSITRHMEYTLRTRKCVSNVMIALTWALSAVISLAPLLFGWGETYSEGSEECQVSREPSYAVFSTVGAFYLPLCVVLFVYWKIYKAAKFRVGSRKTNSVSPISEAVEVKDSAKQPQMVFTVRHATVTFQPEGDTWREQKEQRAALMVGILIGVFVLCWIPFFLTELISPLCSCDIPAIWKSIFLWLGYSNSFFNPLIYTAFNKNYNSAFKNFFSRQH

[15] = biological target: ALK tyrosine kinase receptor (Homo sapiens) (UniProt Q9UM73); conditions: Compound concentration 1000.0 nM
[16] = biological target: Non-receptor tyrosine-protein kinase TYK2 (Homo sapiens) (UniProt P29597); conditions: Compound concentration 1000.0 nM
[17] = biological target: Cyclin-dependent kinase 19 (Homo sapiens) (UniProt Q9BWU1); conditions: Compound concentration 1000.0 nM
[18] = biological target: Dual specificity tyrosine-phosphorylation-regulated kinase 1A (Homo sapiens) (UniProt Q13627); conditions: Compound concentration 1000.0 nM
[19] = biological target: Serine/threonine-protein kinase MARK2 (Homo sapiens) (UniProt Q7KZI7); conditions: Compound concentration 1000.0 nM
Serine/threonine-protein kinase MARK2 (Homo sapiens), sequence (Q7KZI7 whole entry): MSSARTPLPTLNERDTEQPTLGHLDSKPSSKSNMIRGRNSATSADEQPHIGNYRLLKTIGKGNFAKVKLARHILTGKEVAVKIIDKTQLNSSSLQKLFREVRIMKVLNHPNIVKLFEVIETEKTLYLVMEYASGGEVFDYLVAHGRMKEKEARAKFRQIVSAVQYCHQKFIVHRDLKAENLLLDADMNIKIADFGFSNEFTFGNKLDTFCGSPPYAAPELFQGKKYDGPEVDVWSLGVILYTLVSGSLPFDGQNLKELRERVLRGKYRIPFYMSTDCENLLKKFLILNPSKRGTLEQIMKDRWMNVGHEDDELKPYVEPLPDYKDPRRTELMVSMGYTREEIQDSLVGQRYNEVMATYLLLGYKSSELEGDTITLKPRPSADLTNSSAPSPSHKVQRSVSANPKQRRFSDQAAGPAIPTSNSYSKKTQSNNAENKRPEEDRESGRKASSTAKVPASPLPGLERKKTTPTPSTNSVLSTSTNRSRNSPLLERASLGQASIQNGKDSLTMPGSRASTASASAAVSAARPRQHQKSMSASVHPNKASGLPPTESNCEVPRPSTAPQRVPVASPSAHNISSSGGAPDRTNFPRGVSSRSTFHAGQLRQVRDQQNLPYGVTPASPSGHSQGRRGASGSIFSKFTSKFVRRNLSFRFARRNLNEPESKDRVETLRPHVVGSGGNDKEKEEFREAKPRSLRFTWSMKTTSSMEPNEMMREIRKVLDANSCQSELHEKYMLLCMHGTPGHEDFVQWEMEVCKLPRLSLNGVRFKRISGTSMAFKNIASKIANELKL

[20] = biological target: Tyrosine-protein kinase Lyn (Homo sapiens) (UniProt P07948); conditions: Compound concentration 1000.0 nM

Serine/threonine-protein kinase pim-1 (Homo sapiens), sequence (P11309 whole entry, looked up): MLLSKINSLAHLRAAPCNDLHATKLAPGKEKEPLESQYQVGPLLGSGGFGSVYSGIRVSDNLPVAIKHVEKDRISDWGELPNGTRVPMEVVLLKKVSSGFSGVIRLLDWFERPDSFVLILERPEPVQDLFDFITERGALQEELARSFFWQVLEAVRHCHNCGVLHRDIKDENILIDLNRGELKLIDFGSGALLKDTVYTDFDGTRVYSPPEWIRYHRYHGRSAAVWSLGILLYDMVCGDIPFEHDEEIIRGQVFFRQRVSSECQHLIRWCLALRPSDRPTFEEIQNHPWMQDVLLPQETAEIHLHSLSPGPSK
Tyrosine-protein kinase Fer (Homo sapiens), sequence (P16591 whole entry, looked up): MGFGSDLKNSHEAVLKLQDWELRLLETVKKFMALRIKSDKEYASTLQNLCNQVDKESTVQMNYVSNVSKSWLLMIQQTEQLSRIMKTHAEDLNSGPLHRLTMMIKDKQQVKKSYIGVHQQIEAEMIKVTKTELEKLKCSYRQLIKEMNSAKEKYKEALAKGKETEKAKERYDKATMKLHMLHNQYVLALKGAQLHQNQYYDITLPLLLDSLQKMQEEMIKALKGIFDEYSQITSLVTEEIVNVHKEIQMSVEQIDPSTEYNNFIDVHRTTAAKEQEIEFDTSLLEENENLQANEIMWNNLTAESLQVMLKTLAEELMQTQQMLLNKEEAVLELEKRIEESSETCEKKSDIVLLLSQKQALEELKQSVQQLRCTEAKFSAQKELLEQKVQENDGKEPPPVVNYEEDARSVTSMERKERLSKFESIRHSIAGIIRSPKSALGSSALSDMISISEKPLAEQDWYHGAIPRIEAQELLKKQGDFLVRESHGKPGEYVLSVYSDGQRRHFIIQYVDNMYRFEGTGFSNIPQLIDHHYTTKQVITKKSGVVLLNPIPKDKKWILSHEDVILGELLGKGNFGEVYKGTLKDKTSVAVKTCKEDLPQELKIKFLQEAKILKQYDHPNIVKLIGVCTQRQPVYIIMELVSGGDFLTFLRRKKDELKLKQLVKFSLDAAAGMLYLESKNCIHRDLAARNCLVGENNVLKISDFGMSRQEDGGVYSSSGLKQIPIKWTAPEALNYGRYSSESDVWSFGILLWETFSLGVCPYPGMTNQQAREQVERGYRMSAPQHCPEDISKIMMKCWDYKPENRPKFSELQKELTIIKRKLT

Compound | residual activity [1] [%] | residual activity [2] [%] | residual activity [3] [%] | residual activity [4] [%] | residual activity [5] [%] | inhibition [6] [%] | residual activity [7] [%] | IC50 (SN12C) | residual activity [8] [%] | residual activity [9] [%] | residual activity [10] [%] | residual activity [11] [%] | residual activity [12] [%] | residual activity [13] [%] | inhibition [14] [%] | residual activity [15] [%] | residual activity [16] [%] | residual activity [17] [%] | residual activity [18] [%] | residual activity [19] [%] | other results
Cc1nc(C2CCN(C(=O)c3ccc(OC(F)(F)F)cc3N)CC2)c2ncc(N3CCN(C)CC3)cc2n1 [BAY-693] | 99 | 100 | 81 | 100 | 100 | 12.4 | 63 | 29.3 µM (not active) | 98 | 91 | 97 | 100 | 75 | 100 | -3.74 | 89 | 88 | 86 | 100 | 100 | residual activity [20]: 100%
CN1CCN(c2cnc3c(C4CCN(C(=O)c5ccc(OC(F)(F)F)cc5N)CC4)ncnc3c2)CC1 [BAY-885] | 100 | 90 | 87 | 100 | 100 | 4.63 | 64 | > 30 µM (not active) | 94 | 100 | 98 | 100 | 100 | 100 | -1.47 | 99 | 100 | 79 | 100 | 100 | residual activity [20]: 75%
